Where a name gives a salt, the structure may show the parent alone. Read-outs that look alike come from different tables or passages of the source. Blank lines part the entries; values can stand above or below the compound they belong to.
What was measured:
[1] = tested on: A2780 (ovarian carcinoma); test: SRB cytotoxicity assay, A2780; type: cell-based, human; conditions: Homo sapiens, A2780, SRB assay, 72 h of treatment, cut-off 30 μM, read-out: Cytotoxicity (EC50) A2780
Procedure: (§1) Sulforhodamine (SRB) assays were performed to evaluate the cytotoxicity of the compounds. First, the cytotoxicity of the different rhodamines was determined; the results of these assays are compiled in Table 1 and Table 2 and depicted in Figure 1.
(§2) Experimental equipment: as previously described biological assays were performed as previously reported employing cell lines obtained from the Department of Oncology [Martin-Luther-University Halle Wittenberg; they were bought from ATCC [2, 4, 7]]. Rhodamine 101 B, as well as asiatic acid, were obtained from local vendors and used as received.
(§3) For the SRB assay and staining experiments: as previously described.

[2] = tested on: HeLa (cervical adenocarcinoma); test: SRB cytotoxicity assay, HeLa; type: cell-based, human; conditions: Homo sapiens, HeLa, SRB assay, 72 h of treatment, cut-off 30 μM, read-out: Cytotoxicity (EC50) HeLa
Procedure: as §1, §2, §3

[3] = tested on: MCF7 (breast adenocarcinoma); test: SRB cytotoxicity assay, MCF7; type: cell-based, human; conditions: Homo sapiens, MCF7, SRB assay, 72 h of treatment, cut-off 30 μM, read-out: Cytotoxicity (EC50) MCF7
Procedure: as §1, §2, §3

[4] = SRB cytotoxicity assay, NIH 3T3; type: cell-based, murine; conditions: mouse, NIH 3T3 non-malignant fibroblasts, cut-off 30 μM
Procedure: as §1, §2, §3

A375 (melanoma) = test: SRB cytotoxicity assay, A375; type: cell-based, human; conditions: Homo sapiens, A-375, SRB assay, 72 h of treatment, cut-off 30 μM, read-out: Cytotoxicity (EC50) A375
Procedure: as §1, §2, §3

[5] = tested on: HT29 (colorectal carcinoma); test: SRB cytotoxicity assay, HT29; type: cell-based, human; conditions: Homo sapiens, HT-29, SRB assay, 72 h of treatment, cut-off 30 μM, read-out: Cytotoxicity (EC50) HT29
Procedure: as §1, §2, §3

SMILES: CC(=O)OC[C@@]1(C)C2CC[C@]3(C)[C@H](CC=C4[C@@H]5[C@@H](C)[C@H](C)CC[C@]5(C(=O)N5CCN(C(=O)c6ccccc6C6=c7cc8c9c(c7Oc7c6cc6c%10c7CCCN%10CCC6)CCC[N+]=9CCC8)CC5)CC[C@]43C)[C@@]2(C)C[C@@H](OC(C)=O)[C@@H]1OC(C)=O (stereo partly shown) (as salt: chloride) [compound 10]
melting point: 244 to 247 °C

melting point: 224 to 225 °C
SMILES: CCCN(CCC)c1ccc2c(-c3ccccc3C(=O)N3CCCN(C(=O)[C@]45CC[C@@H](C)[C@H](C)[C@H]4C4=CC[C@@H]6[C@@]7(C)C[C@@H](OC(C)=O)[C@H](OC(C)=O)[C@@](C)(COC(C)=O)C7CC[C@@]6(C)[C@]4(C)CC5)CC3)c3ccc(=[N+](CCC)CCC)cc-3oc2c1 (stereo partly drawn) (as salt: chloride) [compound 13, (2α,3β,4α)-9-[2-{[4-(2α,3β,23-Tris(Acetyloxy)-urs-12-en-28-oyl)-Homopiperazinyl]Carbonyl}Phenyl]-3,6-Bis(Dipropylamino)-Xanthylium Chloride]

melting point: 248 to 250 °C
SMILES: CC(=O)OC[C@@]1(C)C2CC[C@]3(C)[C@H](CC=C4[C@@H]5[C@@H](C)[C@H](C)CC[C@]5(C(=O)N5CCN(C(=O)c6ccccc6-c6c7ccc(=[N+](C)C)cc-7oc7cc(N(C)C)ccc67)CC5)CC[C@]43C)[C@@]2(C)C[C@@H](OC(C)=O)[C@@H]1OC(C)=O (stereo partly drawn) (as salt: chloride) [compound 6, (2α,3β,4α)-9-[2-{[4-(2,3,23-Tris(acetyloxy)-urs-12-en-28-oyl)-Piperazinyl]Carbonyl}Phenyl]-3,6-bis(Dimethylamino)-Xanthylium Chloride]

melting point: 224 to 226 °C
SMILES: CC(=O)OC[C@@]1(C)C2CC[C@]3(C)[C@H](CC=C4[C@@H]5[C@@H](C)[C@H](C)CC[C@]5(C(=O)N5CCCN(C(=O)c6ccccc6-c6c7ccc(=[N+](C)C)cc-7oc7cc(N(C)C)ccc67)CCC5)CC[C@]43C)[C@@]2(C)C[C@@H](OC(C)=O)[C@@H]1OC(C)=O (stereo partly drawn) (as salt: chloride) [compound 16, (2α,3β,4α)-9-[2-[{4-(2α,3β,23-Tris(Acetyloxy)-urs-12-en-28-oyl)-1,5-Diazocan-1-Yl]Carbonyl}Phenyl]-3,6-Bis(Dimethylamino)-Xanthylium Chloride]

melting point: 222 to 227 °C
SMILES: CCN(CC)c1ccc2c(-c3ccccc3C(=O)N3CCCN(C(=O)[C@]45CC[C@@H](C)[C@H](C)[C@H]4C4=CC[C@@H]6[C@@]7(C)C[C@@H](OC(C)=O)[C@H](OC(C)=O)[C@@](C)(COC(C)=O)C7CC[C@@]6(C)[C@]4(C)CC5)CCC3)c3ccc(=[N+](CC)CC)cc-3oc2c1 (stereo partly drawn) (as salt: chloride) [compound 17, (2α,3β,4α)-9-[2-[{4-(2α,3β,23-Tris(Acetyloxy)-urs-12-en-28-oyl)-1,5-Diazocan-1-Yl]Carbonyl}Phenyl]-3,6-Bis(Diethylamino)-Xanthylium Chloride]

SMILES: CC(=O)OC[C@@]1(C)C2CC[C@]3(C)[C@H](CC=C4[C@@H]5[C@@H](C)[C@H](C)CC[C@]5(C(=O)N5CCCN(C(=O)c6ccccc6C6=c7cc8c9c(c7Oc7c6cc6c%10c7CCCN%10CCC6)CCC[N+]=9CCC8)CC5)CC[C@]43C)[C@@]2(C)C[C@@H](OC(C)=O)[C@@H]1OC(C)=O (stereo partly shown) (as salt: chloride) [compound 15]
melting point: 287 to 289 °C

melting point: 258 to 260 °C
SMILES: CC(=O)OC[C@@]1(C)C2CC[C@]3(C)[C@H](CC=C4[C@@H]5[C@@H](C)[C@H](C)CC[C@]5(C(=O)N5CCCN(C(=O)c6ccccc6-c6c7ccc(=[N+](C)C)cc-7oc7cc(N(C)C)ccc67)CC5)CC[C@]43C)[C@@]2(C)C[C@@H](OC(C)=O)[C@@H]1OC(C)=O (stereo partly drawn) (as salt: chloride) [compound 11, (2α,3β,4α)-9-[2-{[4-(2α,3β,23-Tris(Acetyloxy)-urs-12-en-28-oyl)-Homopiperazinyl]Carbonyl}Phenyl]-3,6-Bis(Dimethylamino)-Xanthylium Chloride]

melting point: 210 to 213 °C
SMILES: CCCCN(CCCC)c1ccc2c(-c3ccccc3C(=O)N3CCCN(C(=O)[C@]45CC[C@@H](C)[C@H](C)[C@H]4C4=CC[C@@H]6[C@@]7(C)C[C@@H](OC(C)=O)[C@H](OC(C)=O)[C@@](C)(COC(C)=O)C7CC[C@@]6(C)[C@]4(C)CC5)CC3)c3ccc(=[N+](CCCC)CCCC)cc-3oc2c1 (stereo partly drawn) (as salt: chloride) [compound 14, (2α,3β,4α)-9-[2-{[4-(2α,3β,23-Tris(Acetyloxy)-urs-12-en-28-oyl)-Homopiperazinyl]Carbonyl}Phenyl]-3,6-Bis(Dibutylamino)-Xanthylium Chloride]

SMILES: CC(=O)OC[C@@]1(C)C2CC[C@]3(C)[C@H](CC=C4[C@@H]5[C@@H](C)[C@H](C)CC[C@]5(C(=O)N5CCCN(C(=O)c6ccccc6-c6c7ccc(=[N+](C)C)cc-7oc7cc(N(C)C)ccc67)CC5)CC[C@]43C)[C@@]2(C)C[C@@H](OC(C)=O)[C@@H]1OC(C)=O (stereo partly drawn) [compound 11, (2α,3β,4α)-9-[2-{[4-(2α,3β,23-Tris(Acetyloxy)-urs-12-en-28-oyl)-Homopiperazinyl]Carbonyl}Phenyl]-3,6-Bis(Dimethylamino)-Xanthylium Chloride]
EC50 ([1]; Table 2): 3.2 ± 0.4 nM | EC50 ([2]; Table 2): 400 ± 100 nM | EC50 ([3]; Table 2): 28 ± 5 nM | EC50 at 72 h ([4]; Table 2, 72 h of treatment): 300 ± 100 nM | EC50 (A375 (melanoma); Table 2): 39 ± 3 nM | EC50 ([5]; Table 2): 20 ± 10 nM

SMILES: CCCCN(CCCC)c1ccc2c(-c3ccccc3C(=O)O)c3ccc(=[N+](CCCC)CCCC)cc-3oc2c1 [Rh4, reference compound]
EC50 ([1]; Table 1): 3400 ± 100 nM | EC50 ([2]; Table 1): 4300 ± 300 nM | EC50 ([3]; Table 1): 3080 ± 60 nM | EC50 at 72 h ([4]; Table 1, 72 h of treatment): 4300 ± 100 nM | EC50 (A375 (melanoma); Table 1): 4300 ± 100 nM | EC50 ([5]; Table 1): 4900 ± 300 nM

melting point: 207 to 209 °C
SMILES: CCCN(CCC)c1ccc2c(-c3ccccc3C(=O)N3CCCN(C(=O)[C@]45CC[C@@H](C)[C@H](C)[C@H]4C4=CC[C@@H]6[C@@]7(C)C[C@@H](OC(C)=O)[C@H](OC(C)=O)[C@@](C)(COC(C)=O)C7CC[C@@]6(C)[C@]4(C)CC5)CCC3)c3ccc(=[N+](CCC)CCC)cc-3oc2c1 (stereo partly drawn) (as salt: chloride) [compound 18, (2α,3β,4α)-9-[2-[{4-(2α,3β,23-Tris(Acetyloxy)-urs-12-en-28-oyl)-1,5-Diazocan-1-Yl]Carbonyl}Phenyl]-3,6-Bis(Dipropylamino)-Xanthylium Chloride]

melting point: 226 to 228 °C
SMILES: CCCN(CCC)c1ccc2c(-c3ccccc3C(=O)N3CCN(C(=O)[C@]45CC[C@@H](C)[C@H](C)[C@H]4C4=CC[C@@H]6[C@@]7(C)C[C@@H](OC(C)=O)[C@H](OC(C)=O)[C@@](C)(COC(C)=O)C7CC[C@@]6(C)[C@]4(C)CC5)CC3)c3ccc(=[N+](CCC)CCC)cc-3oc2c1 (stereo partly drawn) (as salt: chloride) [compound 8, (2α,3β,4α)-9-[2-{[4-(2,3,23-Tris(Acetyloxy)-urs-12-en-28-oyl)-Piperazinyl]Carbonyl}Phenyl]-3,6-Bis(Dipropylamino)-Xanthylium Chloride]

SMILES: CC(=O)OC[C@@]1(C)C2CC[C@]3(C)[C@H](CC=C4[C@@H]5[C@@H](C)[C@H](C)CC[C@]5(C(=O)N5CCCN(C(=O)c6ccccc6-c6c7ccc(=[N+](C)C)cc-7oc7cc(N(C)C)ccc67)CCC5)CC[C@]43C)[C@@]2(C)C[C@@H](OC(C)=O)[C@@H]1OC(C)=O (stereo partly drawn) [compound 16, (2α,3β,4α)-9-[2-[{4-(2α,3β,23-Tris(Acetyloxy)-urs-12-en-28-oyl)-1,5-Diazocan-1-Yl]Carbonyl}Phenyl]-3,6-Bis(Dimethylamino)-Xanthylium Chloride]
EC50 ([1]; Table 2): 6 ± 1 nM | EC50 ([2]; Table 2): 500 ± 200 nM | EC50 ([3]; Table 2): 50 ± 10 nM | EC50 at 72 h ([4]; Table 2, 72 h of treatment): 400 ± 90 nM | EC50 (A375 (melanoma); Table 2): 70 ± 10 nM | EC50 ([5]; Table 2): 50 ± 20 nM

SMILES: CCCN(CCC)c1ccc2c(-c3ccccc3C(=O)N3CCN(C(=O)[C@]45CC[C@@H](C)[C@H](C)[C@H]4C4=CC[C@@H]6[C@@]7(C)C[C@@H](OC(C)=O)[C@H](OC(C)=O)[C@@](C)(COC(C)=O)C7CC[C@@]6(C)[C@]4(C)CC5)CC3)c3ccc(=[N+](CCC)CCC)cc-3oc2c1 (stereo partly drawn) [compound 8, (2α,3β,4α)-9-[2-{[4-(2,3,23-Tris(Acetyloxy)-urs-12-en-28-oyl)-Piperazinyl]Carbonyl}Phenyl]-3,6-Bis(Dipropylamino)-Xanthylium Chloride]
EC50 ([1]; Table 2): 5.5 ± 0.5 nM | EC50 ([2]; Table 2): 160 ± 50 nM | EC50 ([3]; Table 2): 34 ± 5 nM | EC50 at 72 h ([4]; Table 2, 72 h of treatment): 440 ± 90 nM | EC50 (A375 (melanoma); Table 2): 32 ± 3 nM | EC50 ([5]; Table 2): 31 ± 7 nM

SMILES: CCN(CC)c1ccc2c(-c3ccccc3C(=O)N3CCN(C(=O)[C@]45CC[C@@H](C)[C@H](C)[C@H]4C4=CC[C@@H]6[C@@]7(C)C[C@@H](OC(C)=O)[C@H](OC(C)=O)[C@@](C)(COC(C)=O)C7CC[C@@]6(C)[C@]4(C)CC5)CC3)c3ccc(=[N+](CC)CC)cc-3oc2c1 (stereo partly shown) [compound 7]
EC50 ([1]; Table 2): 5.6 ± 0.6 nM | EC50 ([2]; Table 2): 200 ± 100 nM | EC50 ([3]; Table 2): 34 ± 9 nM | EC50 at 72 h ([4]; Table 2, 72 h of treatment): 330 ± 80 nM | EC50 (A375 (melanoma); Table 2): 27 ± 9 nM | EC50 ([5]; Table 2): 26 ± 9 nM
